Data reported in patent US20260069606A1, “Oxidative Stress and Diabetes Treatment with Cobinamide” (The Regents of the University of California, priority 2022, published 2026).

Key:
[1] = Reaction with superoxide, hypoxanthine-xanthine oxidase-cytochrome c reduction system; format: biochemical; details: for Apparent rate constant, reaction with superoxide (O2·^−): second order, hypoxanthine-xanthine oxidase-cytochrome c system, new data of this study
Protocol: FIGS. 1A-1G. Cobinamide Functions as a Superoxide Dismutase Mimetic. FIGS. 1A-1B. Chemical structures of aquohydroxo-cobinamide (FIG. 1A) and hydroxo-cobalamin (FIG. 1B). FIGS. 1C, 1E. Increasing concentrations of Chi(III) (FIG. 1C) or Chi(II) (FIG. 1E) were incubated in a hypoxanthine-xanthine oxidase-cytochrome c-catalase system for measuring O2·^−, with the change in absorbance at 550 nm (ΔAbs) plotted versus time. A no substrate (no hypoxanthine) control was included. FIGS. 1D, 1F. The calculated rate of change of absorbance at 550 nm in the absence of Chi(III) or Chi(II) (Vo) divided by the calculated rate in their presence (v) is plotted against the Chi(III) (FIG. 1D) or Chi(II) (FIG. 1F) concentration, respectively. The slope of the fitted line was used to calculate the apparent rate constant according to the following equation: kCbi=slope×kcytochrome c×[cytochrome c], where kcytochrome c=1.4×10^6 M^−1 s^−1 and [cytochrome c]=70 μM^70. The data shown are the mean of duplicate samples from one experiment, with similar results found in two additional experiments. Dotted lines show 95% confidence intervals. FIG. 1G. A 20 μM solution of Chi(III) in DMSO was scanned from 280 to 600 nm yielding the spectrum shown as a black line. An equimolar amount of […] (KO2) dissolved in dimethyl sulfoxide (DMSO) was added and the solution was scanned immediately, yielding the grey line. […] The experiment was conducted three times with identical results.
Table I. Reaction Rates of Cobinamide (Cbi), Cobalamin, Imisopasem, and MnTBAP with Reactive Oxygen and Nitrogen Species. Reactions of the indicated compounds with O2·^−, ONOO^−, and ·NO are all second order reactions with rate constants in units of M^−1 s^−1. The reactions of Cbi(III) and Cbi(II) with H2O2 are third order with rate constant units of M^−2 s^−1. Chi(II) and cobalamin(II) bind nitric oxide, so a Ka is shown in units of M^−1. For the new data presented in this study, rate constants were measured for O2·^− using a hypoxanthine-xanthine oxidase-cytochrome c system, for H2O2 using a H2O2-specific sensor (World Precision Instruments), and for ONOO^− using a stopped-flow instrument. Published rate constants for Cu/Zn and Mn superoxide dismutases (SOD) and catalase are shown for reference.^a,b Letters and numbers in parenthesis refer to footnotes and references, respectively.
(§1) The reaction of cobinamide with O2·^− was studied in two different systems, generating O2·^− using a hypoxanthine-xanthine oxidase system.
The first system contained 100 μM hypoxanthine and 0.1 unit xanthine oxidase in 20 mM sodium phosphate buffer, pH 7.1. The amount of O2·^− was measured by following reduction of ferric-cytochrome c (70 μM) at 550 nm as described previously^65. Catalase was included (32 units per sample), because xanthine oxidase generates both O2·^− and H2O2, and the latter can re-oxidize the ferro-cytochrome c product^34,66. The reaction was followed for 10 min. A no substrate blank lacking hypoxanthine was included.
(§2) In both systems, the experiments were conducted in the absence and presence of the indicated concentrations of Cbi(III) or Chi(II) 65.
Catalase was included in the reaction mixture, because the hypoxanthine-xanthine oxidase system also generates H2O2 and the latter can oxidize the ferro-cytochrome c product back to ferric-cytochrome c, thereby interfering with the kinetic measurement^34.

[2] = Reaction with superoxide, spin trap DMPO / EPR; format: biochemical
Protocol: as §1
The second system contained 1 mM hypoxanthine, 0.04 U xanthine oxidase, and 0.26 M DMPO in phosphate-buffered saline, pH 7.4 (PBS). Samples were transferred to a capillary tube, and introduced into the EPR cavity of a Magnettech MiniScope MS5000. DMPO-OH signals arising from the DMPO-OOH spin adduct were measured at 37° C. for 5 min. The area under the DMPO-OOH peak was calculated using Origin 2022b software. To avoid variability across runs, signal amplitudes were normalized to the intensity of simultaneously recorded Mn reference signals originating from ZnS:Mn^2+ fixed within the EPR cavity.
as §2
The reaction of Chi(III) with O2·^− was also measured using the spin-trap DMPO, which yields a distinctive electron paramagnetic resonance (EPR) spectrum on reacting with O2·^−. Sub-micromolar concentrations of cobinamide reduced the EPR signal in a dose-dependent fashion, yielding an apparent rate constant of 7.5×10^7 M^−1 s^−1 for the reaction of Chi(III) with O2·^− (FIG. 1B).

## C/C1=C2/[N-][C@H]([C@H](CC(N)=O)[C@@]2(C)CCC(=O)NC[C@@H](C)O)[C@]2(C)N=C(/C(C)=C3N=C(/C=C4N=C1[C@@H](CCC(N)=O)C\4(C)C)[C@@H](CCC(N)=O)[C@]\3(C)CC(N)=O)[C@@H](CCC(N)=O)[C@]2(C)CC(N)=O.[Co+3] [cobinamide, aquohydroxo-cobinamide]
[1]; hypoxanthine-xanthine oxidase-cytochrome c reduction system, catalase included, exponent shared in the sentence
  Apparent rate constants, reaction with O2·^−: 1.12e+08 M⁻¹ s⁻¹
[1]; listed as Cbi(III)
  Apparent rate constant, reaction with superoxide (O2·^−): 1.1e+08 M⁻¹ s⁻¹
[1]; listed as Chi(III)
  Apparent rate constant, reaction with superoxide (O2·^−): 1.12e+08 M⁻¹ s⁻¹
[2]
  Apparent rate constant, reaction with O2·^−: 7.5e+07 M⁻¹ s⁻¹
